Test results reported in PMC12177781, “Chalcogen Derivatives for the Treatment of African Trypanosomiasis: Biological Evaluation of Thio- and Seleno-Semicarbazones and Their Azole Derivatives” (ACS Omega, 2025).
Where “and” joins values, the source holds several entries; their conditions need not be identical. Identical values can stand only once.

Columns and labels:
[1] = target: T. brucei cathepsin L-like protease (TbrCATL) (Trypanosoma brucei rhodesiense, UniProt Q95PM0); test: TbrCATL inhibition assay, Z-FR-AMC substrate; format: biochemical; conditions: for SI TbrCATL: IC50 hCatL/IC50 TbrCATL
Chain of T. brucei cathepsin L-like protease (TbrCATL) (Q95PM0 1-450): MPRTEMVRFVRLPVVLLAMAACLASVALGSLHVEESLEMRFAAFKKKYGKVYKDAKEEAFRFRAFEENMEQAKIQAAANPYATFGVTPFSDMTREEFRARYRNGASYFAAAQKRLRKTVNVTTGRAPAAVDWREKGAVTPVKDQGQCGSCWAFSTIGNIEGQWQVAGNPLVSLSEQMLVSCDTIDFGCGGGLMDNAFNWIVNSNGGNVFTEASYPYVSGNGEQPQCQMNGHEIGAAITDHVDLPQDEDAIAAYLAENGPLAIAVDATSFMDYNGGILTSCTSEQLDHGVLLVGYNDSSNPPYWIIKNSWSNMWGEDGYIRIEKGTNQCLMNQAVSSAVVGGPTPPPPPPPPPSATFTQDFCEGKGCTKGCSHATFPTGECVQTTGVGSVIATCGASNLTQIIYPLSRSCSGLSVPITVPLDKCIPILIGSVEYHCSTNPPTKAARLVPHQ
Procedure: (§1) All experiments were performed in a 384-well black microplate, using a Synergy HTX (Biotek) plate reader at 25 °C with absorption/emission wavelengths of 360/460 nm. Assays were performed in triplicate wells and DMSO was used as a vehicle control. Enzyme activity was measured and normalized to DMSO controls, and the inhibitor E-64 (10 μM) was used as a positive control for all assays. Experiments were performed in triplicate, with at least two independent assays (n = 6 data points). IC50 values were determined through nonlinear regression. The data obtained were analyzed using GraphPad Prism 9.0 (GraphPad Software, La Jolla, California, US).
The screening assay was performed using 0.5 nM of TbrCATL diluted in 0.1 M sodium acetate, 1 mM dithiothreitol (DTT), and 0.01% Triton X-100, pH 5.5. TbrCATL was expressed and purified as described. Enzyme the compound (10 μM), were incubated for 10 min at room temperature. Then the substrate, Z-Phe-Arg-amidomethylcoumarin (Z-FR-AMC; Sigma-Aldrich, C9521), was added (30 μL diluted in the same assay buffer) to yield a final concentration of 2.5 μM and the assay allowed to proceed for 10 min. […] For those compounds inhibiting enzyme activity by >85%, DR assays were performed over 15 2-fold serial dilutions starting at 0.5 or 20 μM.

[2] = test system: hCatL; conditions: E-64, from ref. (number not given); cited from earlier work
[3] = test system: TbrCATL; conditions: cited from earlier work
[4] = target: T1, human cathepsin L (hCatL) (Homo sapiens, UniProt P07711); test: hCatL inhibition assay, Z-FR-AMC substrate; format: biochemical; conditions: mean ± SD, two experiments in triplicate (n = 6)
T1 construct: purchased R&D Systems 952-CY
T1 sequence (P07711 114-333): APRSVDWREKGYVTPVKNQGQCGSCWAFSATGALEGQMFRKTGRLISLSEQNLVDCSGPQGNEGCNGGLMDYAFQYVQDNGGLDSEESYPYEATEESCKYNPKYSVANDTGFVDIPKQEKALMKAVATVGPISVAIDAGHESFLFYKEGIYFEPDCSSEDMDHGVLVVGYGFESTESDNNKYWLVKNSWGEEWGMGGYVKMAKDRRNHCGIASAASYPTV
Procedure: as §1
Recombinant hCatL was purchased from R&D Systems (952-CY) and activated according to the manufacturers protocol. This enzyme, hCatL, is used to test compounds’ selectivity because it is the human homologue of TbrCATL. The assay was modified from, using 25 pM of the enzyme diluted in 40 mM sodium acetate, 5 mM DTT, 100 mM NaCl, 1 mM EDTA and 0.01% Triton X-100, pH 5.5. Enzyme and compound (10 μM), were incubated for 30 min at room temperature. Then Z-FR-AMC was added (30 μL diluted in the same assay buffer) to yield a final concentration of 25 μM and the assay allowed to proceed for 10 min. DR assays were performed over 15 2-fold serial dilutions starting at 0.5 or 20 μM.

[5] = in vitro; conditions: human, CC50 HepG2 (μM)
[6] = test system: T. brucei brucei Lister 427; test: T. b. brucei Lister 427 bloodstream-form growth inhibition, SYBR Green viability assay, 72 h; format: cell-based, Trypanosoma brucei brucei; conditions: for T. brucei inhibition (%): growth inhibition at 10 µM, ± SD
[7] = test system: HEK293 cells; test: HEK293 cytotoxicity, CellTiter-Glo, 48 h; conditions: Homo sapiens, HEK293, read-out: HEK293 inhibition (%)
[8] = test system: T. cruzi CAI/72; conditions: cited from earlier work
[9] = in vitro; conditions: human, CC50 HEK293 (μM)
[10] = test system: C2C12 cells; conditions: read-out: Toxicity CC50 C2C12 cells; cited from earlier work
[11] = test system: HepG2 cells; conditions: human
[12] = test system: HEK293 cells; conditions: human
[13] = test system: HepG2 cells; test: HepG2 cytotoxicity, CellTiter-Glo, 48 h; conditions: Homo sapiens, HepG2, read-out: HepG2 inhibition (%)
[14] = DPPH radical scavenging (antioxidant) assay; conditions: after 2 h, mean ± SEM
[15] = test system: cruzain (Cz); conditions: cited from earlier work

**Q.** Which results are given for `CC(C)C[C@H](NC(=O)[C@H]1O[C@@H]1C(=O)O)C(=O)NCCCCN=C(N)N` [Compound E-64, E-64]?
**A.** SI TbrCATL [1]: 10; IC50 [2]: 30 ± 4 nM; IC50 [3]: 3.1 nM

**Q.** What does the source list for `C/C(=N\NC(N)=[Se])c1ccc(Br)cc1` [SeO3]?
**A.** IC50 ([1]; IC50 TbrCATL (nM), mean ± SD, two experiments in triplicate (n = 6)): 9.87 nM and 1.22 nM; SI TbrCATL [1]: 8; TbrCATL inhibition (%) ([1]; at 10 μM): 99.15%; inhibition at 10 µM ([1]; read-out: TbrCATL inhibition (%), at 10 μM): > 85%; IC50 [4]: 9.87 ± 0.63 nM; CC50 [5]: 2.82 µM; EC50 ([6]; Trypanosoma brucei, three independent experiments in duplicate (n = 6) ± SD, read-out: EC50 T. brucei): 470 ± 20 nM; T. brucei inhibition (%) ([6]; 10 µM): 100 ± 2%; T. brucei inhibition (%) ([6]; listed as Se O3, 10 µM): > 70%; inhibition at 10 µM [7]: 100%; EC50 [8]: 770 ± 170 nM; CC50 [9]: 2.7 µM; CC50 [10]: > 10 µM; CC50 [11]: 2700 ± 160 nM; CC50 [12]: 2820 ± 110 nM; inhibition at 10 µM [13]: 71 ± 15%; % inhibited DPPH ([14]; 0.015 mg/ml): 23.00 ± 13.43%; % inhibited DPPH ([14]; 0.03 mg/ml): 75.00 ± 2.65%; % inhibited DPPH ([14]; 0.06 mg/ml): 77.67 ± 1.45%; IC50 [15]: 14.3 ± 3.57 nM
